In patent publication US20150338397A1, “Use of Bufodienolides in Diagnosing and Treating Essential Hypertension” (priority 2014, published 2015):

Columns and labels:
angiotensin-infused rats = assay: Systolic blood pressure in angiotensin-infused rats (ANG); format: in vivo; conditions: FIG. 1
Excerpt: (§1) FIG. 1. Mean systolic blood pressure (BP) values in sham (SHM) animals, angiotensin-infused rats (ANG), angiotensin infused animals given resibufogenin (ANGR), normal rats rendered hypertensive by the infusion of saline (volume expansion induced hypertensive rats) (NDS), NDS rats given resibufogenin (NDSR).

[1] = test system: volume expansion-mediated hypertension; conditions: experimental animals; cited from earlier work
[2] = test system: preeclampsia in animal models; conditions: cited from earlier work
[3] = test system: volume expansion induced hypertensive rats; assay: Systolic blood pressure in saline volume expansion induced hypertensive rats (NDS); format: in vivo; conditions: NDS rats given resibufogenin (NDSR) vs NDS; FIG. 1
Excerpt: as §1

[4] = test system: rodent brain contusion model; conditions: given 1 hour after the insult; cited from earlier work
[5] = test system: animals subjected to angiotensin excess; conditions: cited from earlier work
[6] = in vitro; cited from earlier work

Q: Which “Mean systolic blood pressure (BP), effect of angiotensin infusion” value (angiotensin-infused rats; angiotensin-infused rats (ANG) vs sham (SHM)) does the source give for “angiotensin (DRVYIHPF; Angiotensin-2; UniProt P01019 25-32, looked up) [the major vasoconstrictor in the human body; infused to render rats hypertensive]” here?
A: The value was “raised blood pressure equivalently”.

Q: With `C[C@]12CC[C@H](O)C[C@H]1CC[C@@H]1[C@@H]2CC[C@]2(C)[C@@H](c3ccc(=O)oc3)C[C@H]3O[C@]132` [RBG, epoxy-3β-hydroxy-5β-bufa-20,22-dienolide] as the molecule, how does the Blood pressure elevations [1] read?
A: Its Blood pressure elevations is “resolves blood pressure elevations”.

Q: What about the Prevention of preeclampsia [2] of the same molecule?
A: Its Prevention of preeclampsia is “prevents preeclampsia”.

Q: And the “Mean systolic blood pressure (BP)” value [3]?
A: The value was “reduced blood pressure”.

Q: What about the Tissue injury [4] of the same molecule?
A: Its Tissue injury is “amelioration of tissue injury”.

Q: And the Elevated blood pressure [5]?
A: The Elevated blood pressure was “does not lower elevated blood pressure”.

Q: What about the “Mean systolic blood pressure (BP)” value (angiotensin-infused rats; angiotensin infused animals given resibufogenin (ANGR) vs ANG) of the same molecule?
A: The value was “only in the volume expanded animals”.

Q: Which Vasoconstrictor action [6] does the source give for `C[C@]12CC[C@H](O)C[C@@]1(O)CC[C@@H]1[C@@H]2CC[C@]2(C)[C@@H](c3ccc(=O)oc3)C[C@H]3O[C@]132` [MBG, marinobufagenin] here?
A: The Vasoconstrictor action was “acts in vitro as a vasoconstrictor”.
